Data reported in ChEMBL document CHEMBL4364315, “Synthesis and evaluation of cytotoxic and Na+/K+-ATP-ase inhibitory activity of selected 5α-oleandrigenin derivatives” (Eur J Med Chem, 2019).
Activity calls are given as the source filed them. The rule behind the calls is not given here.

What was measured:
A2780 = assay: Antiproliferative activity against human A2780 cells assessed as reduction in cell viability after 72 hrs by resazurin dye based assay; format: functional; conditions: A2780, 72 h
CCRF-CEM [1] = assay: Cell cycle arrest in human CEM cells assessed as increase in cell population at G0/G1 phase at 15 uM after 24 hrs by RNase A/propidium iodide staining-based flow cytometric analysis; format: functional
MCF7 = assay: Antiproliferative activity against human MCF7 cells assessed as reduction in cell viability after 72 hrs by resazurin dye based assay; format: functional; conditions: MCF7, 72 h
CCRF-CEM [2] = assay: Cell cycle arrest in human CEM cells assessed as reduction in cell population at S phase at 15 uM after 24 hrs by RNase A/propidium iodide staining-based flow cytometric analysis; format: functional
HeLa = assay: Antiproliferative activity against human HeLa cells assessed as reduction in cell viability after 72 hrs by resazurin dye based assay; format: functional
[3] = target: T1, Sodium/potassium-transporting ATPase (Sus scrofa) (UniProt P05027+P05024+D2WKD8+D2WKD7+F1ST41); assay: Inhibition of porcine kidney Na+/K+-ATPase assessed as residual activity at 50 uM preincubated for 2 mins followed by ATP addition and measured after 6 mins by bagin-sky assay relative to untreated control; format: protein-complex assay
CCRF-CEM [4] = assay: Antiproliferative activity against human CEM cells assessed as reduction in cell viability after 72 hrs by resazurin dye based assay; format: functional
BJ = assay: Cytotoxicity against human BJ cells assessed as reduction in cell viability after 72 hrs by resazurin dye based assay
CCRF-CEM [5] = assay: Induction of apoptosis in human CEM cells assessed as increase in relative activity of caspase-3/7 at 15 uM using AC-DEVD-AMC as substrate after 24 hrs by fluorescence based assay relative to untreated control; format: functional
CCRF-CEM [6] = assay: Induction of apoptosis in human CEM cells assessed as decrease in Mcl-1 expression at 15 uM after 24 hrs by Western blot analysis; format: functional, cell-based
CCRF-CEM [7] = assay: Induction of apoptosis in human CEM cells assessed as caspase-7 fragmentation at 15 uM after 24 hrs by Western blot analysis; format: functional, cell-based
CCRF-CEM [8] = assay: Cell cycle arrest in human CEM cells assessed as accumulation of cells at sub-G1 phase at 15 uM after 24 hrs by RNase A/propidium iodide staining-based flow cytometric analysis; format: functional
CCRF-CEM [9] = assay: Induction of apoptosis in human CEM cells assessed as PARP-1 cleavage at 15 uM after 24 hrs by Western blot analysis; format: functional, cell-based
Hep 3B2 = assay: Antiproliferative activity against human Hep3B cells assessed as reduction in cell viability after 72 hrs by resazurin dye based assay; format: functional
[10] = target: T1, Sodium/potassium-transporting ATPase (Sus scrofa); assay: Inhibition of porcine kidney Na+/K+-ATPase at 50 uM preincubated for 2 mins followed by ATP addition and measured after 6 mins by bagin-sky assay relative to Olean-drigenin; format: protein-complex assay
CCRF-CEM [11] = assay: Induction of apoptosis in human CEM cells assessed as increase in relative activity of caspase-3/7 at 15 uM using AC-DEVD-AMC as substrate after 24 hrs by fluorescence based assay; format: functional, cell-based
CCRF-CEM [12] = assay: Cell cycle arrest in human CEM cells assessed as increase in accumulation of cells in S phase after 24 hrs by RNase A/propidium iodide staining-based flow cytometric analysis; format: functional
CCRF-CEM [13] = assay: Cell cycle arrest in human CEM cells assessed as decrease in cell population at G0/G1 phase at 15 uM after 24 hrs by RNase A/propidium iodide staining-based flow cytometric analysis; format: functional
CCRF-CEM [14] = assay: Cell cycle arrest in human CEM cells assessed as increase in accumulation of cells in G2/M phase after 24 hrs by RNase A/propidium iodide staining-based flow cytometric analysis; format: functional
CCRF-CEM [15] = assay: Effect on cell cycle analysis in human CEM cells at 15 uM after 24 hrs by RNase A/propidium iodide staining-based flow cytometric analysis; format: functional

Structure (SMILES)	IC50 (A2780)	Activity (CCRF-CEM [1])	IC50 (MCF7)	Activity (CCRF-CEM [2])	IC50 (HeLa)	Activity [3]	IC50 (CCRF-CEM [4])	IC50 (BJ)	fold change (FC) (CCRF-CEM [5])	Activity (CCRF-CEM [6])	Activity (CCRF-CEM [7])	Activity (CCRF-CEM [8])	Activity (CCRF-CEM [9])	IC50 (Hep 3B2)	inhibition [10]	Activity (CCRF-CEM [11])	Activity (CCRF-CEM [12])	Activity (CCRF-CEM [13])	Activity (CCRF-CEM [14])	Activity (CCRF-CEM [15])
CO[C@H]1CC[C@@]2(C)[C@@H](CC[C@@H]3[C@@H]2CC[C@]2(C)[C@@H](C4=CC(=O)OC4)[C@@H](O)[C@H]4O[C@]342)C1	> 50 µM	Active	> 50 µM	Active	> 50 µM	75%	> 50 µM	> 50 µM	–	–	–	–	–	–	–	–	–	–	–	–
CO[C@H]1CC[C@@]2(C)[C@@H](CC[C@@H]3[C@@H]2CC[C@]2(C)[C@@H](C4=CC(=O)OC4)[C@@H](OC(C)=O)[C@@H]4O[C@@]342)C1	4.9 µM	–	4.4 µM	–	17.5 µM	104%	1.3 µM	5.7 µM	<=19	Active	Active	Active	Active	> 50 µM	–	–	–	–	–	–
CO[C@H]1CC[C@@]2(C)[C@@H](CC[C@@H]3[C@@H]2CC[C@]2(C)[C@@H](c4ccoc4)[C@@H](O)[C@H]4O[C@]342)C1	18.4 µM	–	50 µM	–	11.9 µM	101%	36.4 µM	> 50 µM	–	–	–	–	–	27.2 µM	–	–	–	–	–	–
CO[C@H]1C[C@H](O[C@H]2CC[C@@]3(C)[C@H](CC[C@@H]4[C@@H]3CC[C@]3(C)[C@@H](C5=CC(=O)OC5)[C@@H](OC(C)=O)C[C@]43O)C2)O[C@@H](C)[C@@H]1O [OLEANDRIN]	–	–	0.033 µM	–	0.062 µM	49%	0.019 µM	0.026 µM	–	–	–	–	–	–	25%	–	–	–	–	–
CO[C@H]1CC[C@@]2(C)[C@@H](CC[C@@H]3[C@@H]2CC[C@]2(C)[C@@H](C4=CC(=O)OC4)[C@@H](OC(C)=O)[C@H]4O[C@]342)C1	1.7 µM	–	7.6 µM	–	11.3 µM	25%	2.5 µM	4.5 µM	–	Active	Active	Active	Active	–	–	Active	–	–	–	–
CO[C@H]1CC[C@@]2(C)[C@@H](CC[C@@H]3[C@@H]2CC[C@]2(C)[C@@H](C4=CC(=O)OC4)[C@@H](O)C[C@]32O)C1	> 50 µM	–	> 50 µM	–	> 50 µM	25%	14.1 µM	> 50 µM	–	–	Active	Active	Active	–	–	inactive	–	–	–	–
CO[C@H]1CC[C@@]2(C)[C@@H](CC[C@@H]3[C@@H]2CC[C@]2(C)[C@@H](C4=CC(=O)OC4)[C@@H](OC(C)=O)C[C@]32O)C1	5.9 µM	–	21.1 µM	–	14.8 µM	24%	5.8 µM	7.9 µM	–	–	Active	Active	Active	7.7 µM	–	Active	Dose-dependent effect	Active	Dose-dependent effect	–
CC(=O)O[C@H]1C[C@]2(O)[C@@H]3CC[C@@H]4C[C@@H](O)CC[C@]4(C)[C@H]3CC[C@]2(C)[C@H]1C1=CC(=O)OC1	–	–	0.8 µM	–	0.2 µM	75%	0.2 µM	0.1 µM	–	–	–	–	–	–	–	–	–	–	–	–
CO[C@H]1CC[C@@]2(C)[C@@H](CC[C@@H]3[C@@H]2CC[C@]2(C)[C@@H](c4ccoc4)[C@@H](OC(C)=O)C[C@]32O)C1	> 50 µM	–	> 50 µM	–	> 50 µM	75%	> 50 µM	> 50 µM	–	–	–	–	–	> 50 µM	–	–	–	–	–	inactive
